Measurements as given in patent US6635639B2, “Use of N-alkylamino-heterocylic compounds for the treatment of migraine” (NPS Allelix Corp., priority 1998, dated 2003).

Experiments:
5-HT1D receptor = molecular target: T1, 5-HT1D receptor (Homo sapiens, UniProt P28221); assay: Binding affinity, 3H-serotonin displacement from membranes of cells expressing 5-HT1D; conditions: binding of radioligand inhibited in the presence of 100 nM of test compound; 3H-serotonin 1 nM; read-out: percent inhibition at the 5-HT1D receptor
T1 construct: expressed in transfected cells
Experimental: (§1) Selected compounds of the previous examples, as well as reference compounds, were evaluated for binding affinity using cell types receptive specifically to 5-HT1D and 5-HT1B ligands. The assay protocol generally entailed the incubation of membranes prepared from cells expressing the 5-HT1D or 5-HT1B subtype of 5-HT receptors with ^3H-serotonin (1 nM for 5-HT1D and 2.5 nM for 5-HT1B). Specific concentrations of the test compound were incubated with the radioligand and the membrane homogenates prepared from the recombinant cells. After a 60 minute incubation at 22° C., the incubation was terminated by vacuum filtration. The filters were washed with buffer and counted for radioactivity using liquid scintillation spectroscopy. The affinity of the test compound for the 5-HT1D receptor is expressed as the amount (in percent) of binding of the radioligand that is inhibited in the presence of 100 nM of test compound. A greater percent inhibition indicates greater affinity for the 5-HT1D receptor.

5-HT1B receptor = molecular target: T2, 5-HT1B receptor (Homo sapiens, UniProt P28222); assay: Binding affinity, 3H-serotonin displacement from membranes of cells expressing 5-HT1B; conditions: 1 h; 3H-serotonin 2.5 nM; selectivity comparison; read-out: percent inhibition at the 5-HT1B receptor
T2 construct: expressed in transfected cells
Experimental: as §1

T2 sequence (P28222 whole entry): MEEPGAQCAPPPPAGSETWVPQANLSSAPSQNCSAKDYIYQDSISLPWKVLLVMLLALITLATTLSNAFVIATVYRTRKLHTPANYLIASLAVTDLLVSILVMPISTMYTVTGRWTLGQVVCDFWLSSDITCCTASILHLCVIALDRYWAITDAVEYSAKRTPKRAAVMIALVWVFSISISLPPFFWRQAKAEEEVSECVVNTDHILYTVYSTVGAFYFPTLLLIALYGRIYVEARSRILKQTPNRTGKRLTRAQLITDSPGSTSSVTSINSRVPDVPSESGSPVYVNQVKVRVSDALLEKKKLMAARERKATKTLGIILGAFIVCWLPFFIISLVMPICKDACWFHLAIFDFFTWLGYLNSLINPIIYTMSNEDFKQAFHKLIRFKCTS
T1 sequence (P28221 whole entry): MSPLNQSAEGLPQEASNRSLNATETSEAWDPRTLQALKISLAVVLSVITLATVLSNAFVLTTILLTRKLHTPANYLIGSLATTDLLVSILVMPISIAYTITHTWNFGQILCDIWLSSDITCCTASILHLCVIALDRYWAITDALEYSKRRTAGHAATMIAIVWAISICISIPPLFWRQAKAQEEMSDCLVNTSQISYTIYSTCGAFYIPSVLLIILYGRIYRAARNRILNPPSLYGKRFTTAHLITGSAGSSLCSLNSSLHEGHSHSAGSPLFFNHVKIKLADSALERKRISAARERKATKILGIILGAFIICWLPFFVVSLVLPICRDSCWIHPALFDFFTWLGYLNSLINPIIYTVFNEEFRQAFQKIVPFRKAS

Structure (SMILES)	inhibition at 0.1 µM (5-HT1D receptor)	inhibition at 0.1 µM (5-HT1B receptor)
CN(C)CCn1ccc2ccc(C3(O)CCSCC3)cc21 [Example 3, 1-(2-(N,N-Dimethylamino)ethyl)-6-(4-hydroxy-tetrahydro-thiopyran-4-yl)-1H-indole]	> 75%	< 15%
CCN(CC)CCn1ccc2ccc(C3CCSCC3)cc21 [Example 5e, 1-(2-(N,N-diethylamino)ethyl)-6-(tetrahydrothiopyran-4-yl)-1H-indole]	> 75%	< 15%
CN(C)CCn1ccc2ccc(C3(O)CCOCC3)cc21 [Example 6, 6-(4-hydroxy-tetrahydropyran-4-yl)-1-(2-(N,N-dimethylamino)ethyl)-1H-indole]	> 90%	
CCN(CC)CCn1ncc2ccc(-c3ccsc3)cc21 [Example 9b, 1-(2-(N,N-diethylamino)ethyl)-6-(3-thienyl)-1H-indazole]	> 75%	< 15%
c1cc(-c2ccc3cnn(CCN4CCCC4)c3c2)cs1 [Example 9i, 1-(2-(N-pyrrolidinyl)ethyl)-6-(3-thienyl)-1H-indazole]	> 75%	< 15%
c1cc(-c2ccc3cnn(CCNC4CC4)c3c2)cs1 [Example 9p, 1-(2-(N-cyclopropylamino)ethyl)-6-(3-thienyl)-1H-indazole]	> 75%	
CN(C)CCn1ncc2ccc(-c3cccs3)cc21 [Example 10, 1-(2-(N,N-dimethylamino)ethyl)-6-(2-thienyl)-1H-indazole]	> 75%	< 50%
CN(C)CCn1ncc2ccc(-c3ccsc3)cc21 [Example 10b, 1-(2-(N,N-dimethylamino)ethyl)-6-(3-thienyl)-1H-indazole]	> 90%	
CCN(CC)CCn1ccc2ccc(-c3cccnc3)cc21 [Example 10dd, 1-(2-(N,N-diethylamino)ethyl)-6-(3-pyridinyl)-1H-indole]	> 75%	
CCN(CC)CCn1ncc2ccc(-c3cccnc3)cc21 [Example 10h, 1-(2-(N,N-diethylamino)ethyl)-6-(3-pyridinyl)-1H-indazole]	> 75%	< 15%
CCN(CC)CCn1ncc2ccc(-c3ccoc3)cc21 [Example 10i, 1-(2-(N,N-diethylamino)ethyl)-6-(furan-3-yl)-1H-indazole]	> 75%	< 15%
CCN(CC)CCn1ncc2ccc(-c3cc4ccccc4o3)cc21 [Example 10o, 1-(2-(N,N-diethylamino)ethyl)-6-(benzofuran-2-yl)-1H-indazole]	> 50%	
CN(C)CCn1ccc2ccc(-c3cccs3)cc21 [Example 10t, 1-(2-(N,N-dimethylamino)ethyl)-6-(2-thienyl)-1H-indole]	> 75%	
CN(C)CCn1ccc2ccc(-c3cccnc3)cc21 [Example 10w, 1-(2-(N,N-dimethylamino)ethyl)-6-(3-pyridinyl)-1H-indole]	> 90%	
CN(C)CCn1ncc2ccc(-c3ccncc3)cc21 [Example 12, 1-(2-(N,N-dimethylamino)ethyl)-6(4-pyridinyl)-1H-indazole]	> 75%	
CN(C)CCn1ccc2ccc(-c3ccccn3)cc21 [Example 12b, 1-(2-(N,N-dimethylamino)ethyl)-6-(pyridin-2-yl)-1H-indole]	> 50%	
CCN(CC)CCn1ncc2ccc(C3CCOCC3)cc21 [Example 16, 1-(2-(N,N-diethylamino)ethyl)-6-(tetrahydropyran-4-yl)-1H-indazole]	> 75%	< 15%
CCN(CC)CCn1ncc2ccc(C3CCSCC3)cc21 [Example 16d, 1-(2-(N,N-diethylamino)ethyl)-6-(tetrahydrothiopyran-4-yl)-1H-indazole]	> 75%	
